Measured values from EP0339978B1, “Fused polycyclic compounds, compositions, methods of manufacture, and their use as PAF antagonists, antihistamines and/or antiinflammatory agents” (SCHERING CORPORATION, priority 1988, dated 1989).

Key:
[1] = test system: Cellular and Fluid Influx to Rat Pleural Cavity; assay: Inhibition of cellular and fluid influx to rat pleural cavity (antiinflammatory activity assay); type: in vivo; conditions: 25 mg 1 kg p.o., rats
Experimental: Compounds 3.0 of this invention are useful for the treatment of inflammation; thus, they are useful for the treatment of arthritus, bursitis, tendonitis, gout, and other inflammatory conditions. […] Protection against cellular and fluid influx strongly indicates antiinflammatory properties. D. Antiinflammatory Activity Assay Inhibition of Cellular and Fluid Influx to Rat Pleural Cavity. Groups of 4 male rats are injected in the penile vein with antigen (1 mg BSA in 0.2 mL of saline per rat) and 0.5 hour later injected in the pleural cavity with antibody (1.0 mg antibody protein in the IgG fraction of rabbit anti-BSA in 0.2 mL). […] After 4 hours the animals are killed with CO2, and the pleural cavities are opened and the exudate is drained into a graduated conical glass centrifuge tube containing indomethacin (1.8 ug) and nordihydroguaiaretic acid (NDGA) (15 ug) to block ex vivo metabolite synthesis. The volume of the exudate is measured. The cavity is then washed out with saline-EDTA to achieve a final volume of 5.0 mL. The number of cells is determined in a Coulter Counter. The cells are spun-down (1000 x g) and the exudate supernatant is added to 4 volumes of 95% ethanol and samples are kept on ice for 30 minutes. After removal of the protein precipitate (2,500 x g) the ethanol extract of the exudate is dried under N2 and then is stored at -20°C. […]

[2] = test system: PAF; assay: PAF antagonism in vitro assay: PAF-induced platelet aggregation in platelet-rich plasma; type: cell-based; conditions: PAF 1-5 X 10^-8M, human PRP
Experimental: Preparation of platelet-rich plasma (PRP): Human blood (50 ml) is collected from healthy male donors. The blood is mixed with an anticoagulant solution (5 ml) containing sodium citrate (3.8%) and dextrose (2%). Blood is centrifuged at 110 X g for 15 min. and the supernatant PRP is carefully transferred into a polypropylene tube. Platelet-poor-plasma (PPP) is prepared by centrifuging PRP at 12,000 X g for 2 min. in a Beckman Microfuge B. PRP is used within 3 hours of drawing the blood.
Platelet Aggregation Assay: When an aggregating agent such as PAF is added to PRP, platelets aggregate. An aggregometer quantifies this aggregation by measuring light (infra-red) transmission through PRP and comparing it to transmission through PPP. The aggregation assays are performed using a dual-channel aggregometer (Model 440, Chrono-Log Corp., Havertown, PA). PRP (0.45 ml) in aggregometer curettes is continually stirred (37°C). Solutions of test compounds or vehicle are added to the PRP, and, after incubation for 2 min., 10-15 µl aliquots of pAF solution are added so as to achieve a final concentration of 1-5 X 10^-8M. Incubations are continued until the increase in light transmission reaches a maximum (usually about 2 min). Values for inhibition are calculated by comparing maximal aggregation obtained in the absence and the presence of the compound. For each experiment, a standard PAF antagonist, such as alprazolam, is used as a positive internal control. The inhibitory concentration is the concentration of compound in micromoles at which the indicated % inhibition of the aggregation is found, as measured by the light transmission through each sample of PRP as compared to that through each sample of PPP.

## O=C1c2ccccc2CCc2c1[nH]c1ccccc21 [Compound E, 11,12-Dihydrobenzo[5,6]cyclohepta[1,2-b]indol-6(5H)-one]
[1]
  reduced cellular influx to the pleural cavity: 65%
  reduced fluid influx to the pleural cavity: 25%

## CC(=O)N1CCC(=C2c3ccccc3CCc3sc(C)nc32)CC1 [compound 4]
[2]; Dose 12 μm
  Inhibition (%): 29%
[2]; Dose 25 μm
  Inhibition (%): 71%
[2]; Dose 50 μm
  Inhibition (%): 100%

## COc1ccc(Cn2c(C)nc3c2CCc2ccccc2C3=C2CCN(C(C)=O)CC2)cc1 [compound 5]
[2]; Dose 50 μm
  Inhibition (%): 67%
